Measurements published in paper PMC7076710, “Synthesis, Identification, and Structure–Activity Relationship Analysis of GATA4 and NKX2-5 Protein–Protein Interaction Modulators” (Journal of Medicinal Chemistry, 2019).
One block for each molecule: values may come before it.

Target: T1, GATA4–NKX2-5 transcriptional synergy (Mus musculus, UniProt P42582+Q08369)
T1 construct: expressed in transfected cells; host or cells: COS-1
Assay: GATA4–NKX2-5 transcriptional synergy luciferase reporter assay (3xNKE reporter, COS-1 cells)
Assay type: cell-based
Experimental: To screen compounds for the GATA4–NKX2-5 interaction, we have developed a luciferase reporter assay based on their property to activate gene transcription synergistically through the NKX2-5 binding site on DNA.[28] In this assay, we transfected mammalian COS-1 cells with protein expression vectors for GATA4 and NKX2-5 proteins together with artificial luciferase reporter vector containing three high affinity binding sites for NKX2-5 (NKE). […] All 257 compounds were tested in two concentrations, 3 and 10 μM. Compounds either inhibited, enhanced, or had no effect on the GATA4–NKX2-5 transcriptional synergy. To investigate the selectivity of the active compounds, we tested their effects on NKX2-5 transcriptional activity by using the same luciferase reporter vector as in transcriptional synergy assay with three NKE sites (Figure 3B). Furthermore, we used GATA luciferase reporter assay to examine if compounds have an effect on GATA4 transcriptional activity. In this assay, we cotransfected the cells with a GATA4 protein expression vector and a reporter vector with tandem GATA4 binding sites (Figure 3C). Previously we have reported that compound 1 inhibited the GATA4–NKX2-5 transcriptional synergy at micromolar concentrations (IC50 = 3 μM).[29]
The plasmids expressing mouse GATA4 protein, pMT2-GATA4, and empty pMT2 were gifts from D. B. Wilson (Department of Pediatrics, St. Louis Children’s Hospital, St. Louis, MO).[44] The plasmids expressing mouse NKX2-5 protein, pMT2-NKX2-5, have been described earlier.[28] The luciferase reporter plasmid used in GATA4–NKX2-5 transcriptional synergy assay and NKX transcriptional assay, pGL3-3xHA, contains three high affinity binding sites for NKX2-5.[28] The luciferase reporter plasmid used in GATA transcriptional assay, NP-112, contains tandem GATA-sites and minimal promoter of rat brain natriuretic peptide (BNP) gene.[45] The pGL3-BNP luciferase reporter containing −534/+4 bp rat BNP proximal promoter described previously was used in hypertrophy assay.[46]
The primary screening assay of compounds’ effect on GATA4–NKX2-5 transcriptional synergy and COS-1 cell culturing has been described earlier.[33] […] (Kinnunen et al., unpublished observation). Briefly, COS-1 cells were seeded at 14 000 cells/well in Isoplate-96 microplates (PerkinElmer, Turku, Finland) and grown overnight. The cells were transfected with the luciferase reporter plasmid pGL3-3xHA 100 ng/well and equal amounts of expression plasmids pMT2-GATA4 and pMT2-NKX2-5 total 50 ng/well. To verify the synergistic effect, the cells were transfected with pMT2-GATA4 or pMT2-NKX2-5 25 ng/well, and the total DNA concentration was adjusted to 50 ng/well with empty pMT2 plasmid. In NKX2-5 and GATA4 luciferase reporter assays, the cells were transfected with reporter plasmid pGL3-3xHA or NP-112 (100 ng/well) and expression plasmid pMT2-NKX2-5 or pMT2-GATA4 (25 ng/well). The ratio of DNA/transfection reagent (Fugene 6, Promega) was 1:3 in all assays. The transfections were performed in serum and antibiotics free media for 6 h. The cells were treated with compounds or vehicle (0.1% DMSO) for 24 h, and the luminescence was measured using neolite Reporter Gene Assay System (PerkinElmer, Turku, Finland) and Victor2 plate reader (PerkinElmer, Turku, Finland).
Raw luciferase data were analyzed in Excel, and clear outliers were removed from triplicates by using the Grubb’s test. Data analysis was performed using R.[49] The luciferase data were first normalized on the basis of the combined mean value of controls. For data visualization and creation of figures, the following R packages were used: ggplot2, cowplot, RColorBrewer, and pheatmap. The heatmaps of the toxicity data were produced with GraphPad Prism 7.00 (GraphPad Software, La Jolla, CA). Statistical significance of luciferase reporter assay data was evaluated by randomized block analysis of variance followed by Dunnett’s post hoc test. […]

[1] = 3 µM compound, GATA4–NKX2-5 transcriptional synergy reporter, COS-1 cells
[2] = 10 µM compound, GATA4–NKX2-5 transcriptional synergy reporter, COS-1 cells
[3] = COS-1, compound 3 µM, luciferase reporter activity, spread in separate STDEV column
[4] = COS-1, compound 10 µM, luciferase reporter activity, spread in separate STDEV column
[5] = COS-1, compound 3 µM, luciferase reporter activity relative to control
[6] = COS-1, compound 10 µM, luciferase reporter activity relative to control
[7] = COS-1, compound at 3 µM, luciferase reporter activity, % of control
[8] = COS-1, compound at 10 µM, luciferase reporter activity, % of control
[9] = COS-1, 3 µM, luciferase reporter activity, % of control
[10] = COS-1, 10 µM, luciferase reporter activity, % of control
[11] = COS-1, GATA4-NKX2-5 transcriptional synergy luciferase reporter assay, compound at 3 µM
[12] = COS-1, GATA4-NKX2-5 transcriptional synergy luciferase reporter assay, compound at 10 µM

T1 sequence (Q08369 whole entry): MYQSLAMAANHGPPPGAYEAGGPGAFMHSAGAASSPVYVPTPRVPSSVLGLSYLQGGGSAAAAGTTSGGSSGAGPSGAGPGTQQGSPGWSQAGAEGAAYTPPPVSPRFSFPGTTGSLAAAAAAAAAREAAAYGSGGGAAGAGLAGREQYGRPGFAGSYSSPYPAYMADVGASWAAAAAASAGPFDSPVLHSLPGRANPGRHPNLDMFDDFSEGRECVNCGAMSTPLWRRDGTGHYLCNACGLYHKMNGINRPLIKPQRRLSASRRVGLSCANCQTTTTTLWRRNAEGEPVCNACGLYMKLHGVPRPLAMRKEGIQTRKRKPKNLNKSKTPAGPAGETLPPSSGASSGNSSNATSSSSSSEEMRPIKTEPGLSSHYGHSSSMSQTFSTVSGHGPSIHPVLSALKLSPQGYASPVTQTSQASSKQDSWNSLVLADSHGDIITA
T1 sequence (P42582 whole entry): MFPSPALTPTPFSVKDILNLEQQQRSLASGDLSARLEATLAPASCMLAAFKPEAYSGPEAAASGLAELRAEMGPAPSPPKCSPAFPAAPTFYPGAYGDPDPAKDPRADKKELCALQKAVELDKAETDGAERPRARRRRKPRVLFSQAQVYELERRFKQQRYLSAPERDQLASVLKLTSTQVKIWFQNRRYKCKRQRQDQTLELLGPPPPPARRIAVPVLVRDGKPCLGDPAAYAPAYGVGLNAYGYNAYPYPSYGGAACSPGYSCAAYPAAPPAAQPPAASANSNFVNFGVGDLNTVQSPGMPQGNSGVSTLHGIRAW

SMILES: CCN(CC)c1ccc(NC(=O)c2c(-c3ccc(-c4ccc(F)cc4)cc3)noc2C)cc1 [Compound 39j]
- activity at 3 µM [1]: 115%
- activity at 10 µM [2]: 114%

SMILES: CCN(CC)c1ccc(NCc2c(-c3ccccc3)noc2C)cc1 [Compound 20, N^1,N^1-Diethyl-N^4-[(5-methyl-3-phenylisoxazol-4-yl)methyl]benzene-1,4-diamine]
- activity at 3 µM [1]: 85.3%
- activity at 10 µM [2]: 104%

SMILES: CCN(CC)c1ccc(NC(=O)c2c(-c3ccccc3[N+](=O)[O-])noc2C)cc1 [Compound 39h]
- activity at 3 µM [7]: 89.5%

SMILES: CCN(CC)c1ccc(NS(=O)(=O)c2c(-c3ccccc3)noc2C)cc1 [Compound 21, N-[4-(Diethylamino)phenyl]-5-methyl-3-phenylisoxazole-4-sulfonamide]
- activity at 3 µM [5]: 104%

SMILES: Cc1onc(-c2ccccc2)c1C(=O)Nc1ccc(OCCN2CCOCC2)cc1 [Compound 4h]
- activity at 3 µM [9]: 89.8%

SMILES: CC(=O)c1ccc(NC(=O)c2cc(-c3ccco3)on2)cc1 [Compound 70]
- activity at 3 µM [3]: 115%

SMILES: CCN(CC)c1ccc(NC(=O)c2ncoc2-c2ccco2)cc1 [Compound 47x]
- activity at 3 µM [3]: 116%
- activity at 10 µM [4]: 116%

SMILES: CCN(CC)c1ccc(NC(=O)c2c(-c3ccccc3)nnc3ccccc23)cc1 [Compound 47j]
- activity at 3 µM [5]: 113%

SMILES: Cc1onc(-c2ccccc2)c1C(=O)Nc1ccc(N(C)C)cc1 [Compound 4d, N-[4-(Dimethylamino)phenyl]-5-methyl-3-phenylisoxazole-4-carboxamide]
- activity at 3 µM [9]: 88.1%

SMILES: CCN(CC)c1ccc(NC(=O)c2c(-c3ccccc3)noc2C)cc1Cl [Compound 4c]
- activity at 3 µM [3]: 92.6%

SMILES: Cc1onc(-c2ccccc2)c1COc1ccc([N+](=O)[O-])cc1 [Compound 21b]
- activity at 3 µM [9]: 94%

SMILES: CCN(CC)c1ccc(/N=C(\SCCF)c2c(-c3ccccc3)noc2C)cc1 [Compound 24b]
- activity at 3 µM [7]: 122%
- activity at 10 µM [8]: 108%

SMILES: CCN(CC)c1ccc(NC(=O)c2c(-c3ccccn3)noc2C)cc1 [Compound 59]
- activity at 3 µM [11]: 90.9%
- activity at 10 µM [12]: 104%

SMILES: CCN(CC)c1ccc(NC(=O)c2c(-c3c(Cl)ccc([N+](=O)[O-])c3Cl)noc2C)cc1 [Compound 39f, 3-(2,6-Dichloro-3-nitrophenyl)-N-[4-(diethylamino)phenyl]-5-methylisoxazole-4-carboxamide]
- activity at 3 µM [7]: 76.3%

SMILES: CCN(CC)c1ccc(NC(=O)c2c(-c3ccccc3)nnn2C)cc1 [Compound 47o]
- activity at 3 µM [5]: 113%

The remaining lines, values ahead:

- activity at 3 µM [3]: 92%
- activity at 10 µM [4]: 91.9%
SMILES: COc1ccc(NC(=O)c2c(-c3ccc(Br)s3)noc2C)cc1Cl [SI115]

- activity at 3 µM [5]: 91.9%
- activity at 10 µM [6]: 89.3%
SMILES: COc1ccc(-c2n[nH]c(N)c2/N=N/c2ccc(C(=O)O)cc2)cc1 [SI95]

- activity at 3 µM [7]: 72.7%
- activity at 10 µM [8]: 112%
SMILES: CCN(c1ccc(NC(=S)c2c(-c3ccccc3)noc2C)cc1)C(C)C [SI38]

- activity at 3 µM [9]: 99.5%
- activity at 10 µM [10]: 91.3%
SMILES: Cc1onc(-c2ccccc2)c1C(=O)N1CCc2cc([N+](=O)[O-])ccc21 [SI16]

- activity at 3 µM [5]: 74.9%
- activity at 10 µM [6]: 86%
SMILES: CCN(CC)c1ccc(N(CCOC)C(=O)c2c(-c3cccc([N+](=O)[O-])c3)noc2C)cc1 [SI30]

- activity at 3 µM [3]: 89.2%
- activity at 10 µM [4]: 71.6%
SMILES: Cc1onc(-c2ccccc2)c1C(=O)Nc1ccc(OCC(F)(F)F)c(Cl)c1 [SI13]

- activity at 3 µM [1]: 102%
- activity at 10 µM [2]: 71.2%
SMILES: O=C(Nc1ccc2oc(-c3ccccc3)cc(=O)c2c1)c1c[nH]nc1-c1ccccc1 [SI90]

- activity at 3 µM [7]: 108%
- activity at 10 µM [8]: 87.4%
SMILES: Cc1onc(-c2ccccc2)c1C(=S)Nc1ccc(OCc2ccccc2)cc1 [SI37]

- activity at 3 µM [1]: 103%
- activity at 10 µM [2]: 94.9%
SMILES: O=C(Nc1ccc2oc(-c3ccccc3)cc(=O)c2c1)c1snnc1-c1ccccc1 [SI104]

- activity at 3 µM [5]: 89.3%
- activity at 10 µM [6]: 95.3%
SMILES: CCC(=O)c1ccc(OCc2c(C)noc2-c2ccccc2)cc1 [SI47]

- activity at 3 µM [9]: 88.4%
- activity at 10 µM [10]: 98.2%
SMILES: Cc1onc(-c2ccccc2)c1/N=C/c1ccc(C(C)N(C)C)cc1 (stereo not drawn) [SI45]

- activity at 3 µM [9]: 97.8%
- activity at 10 µM [10]: 77.6%
SMILES: CCCCCc1ccc(C(=O)Nc2c(-c3ccccc3)noc2C)cc1 [SI34]

- activity at 3 µM [7]: 93.3%
- activity at 10 µM [8]: 107%
SMILES: CN(C)c1ccc(C=Nc2cc(-c3ccccc3)nn2-c2ccccc2)cc1 [SI93]

- activity at 3 µM [1]: 91.4%
- activity at 10 µM [2]: 97.4%
SMILES: CCc1noc(C)c1C(=O)Nc1ccc2oc(-c3ccccc3)cc(=O)c2c1 [SI50]

- activity at 3 µM [11]: 102%
- activity at 10 µM [12]: 106%
SMILES: O=C(Nc1cccc(N2CCCC2=O)c1)c1cc(-c2ccccc2)[nH]n1 [SI130]

- activity at 3 µM [1]: 94.8%
- activity at 10 µM [2]: 99.6%
SMILES: Cc1onc(-c2ccccc2)c1CNc1ccc2oc(-c3ccccc3)cc(=O)c2c1 [SI40]

- activity at 3 µM [1]: 102%
- activity at 10 µM [2]: 92.8%
SMILES: CCN(CC)c1ccc(NCc2c(-c3c(Cl)cccc3Cl)noc2C)cc1 [SI18]

- activity at 3 µM [7]: 93.1%
- activity at 10 µM [8]: 91%
SMILES: Cc1cc(NC(=O)c2c(-c3cccc([N+](=O)[O-])c3)noc2C)ccc1C(C)C [SI52]

- activity at 3 µM [5]: 112%
- activity at 10 µM [6]: 117%
SMILES: O=C(Nc1ccc2oc(-c3ccccc3)cc(=O)c2c1)c1cnsc1 [SI100]

- activity at 3 µM [1]: 88.4%
- activity at 10 µM [2]: 82.1%
SMILES: CCN(CC)c1ccc(NCc2c[nH]nc2C2CCCCC2)cc1 [SI85]

- activity at 3 µM [5]: 70.3%
- activity at 10 µM [6]: 44.1%
SMILES: Cc1noc(-c2ccccc2)c1C(=O)Nc1ccc2oc(-c3ccccc3)cc(=O)c2c1 [SI105]

- activity at 3 µM [5]: 97.8%
- activity at 10 µM [6]: 72.4%
SMILES: CCN(CC)c1ccc(NC(=O)c2c(-c3ccccc3)nnn2Cc2ccccc2)cc1 [SI60]

- activity at 3 µM [11]: 83%
- activity at 10 µM [12]: 82.5%
SMILES: Cc1cc(-c2noc(C)c2C(=O)Nc2cccc(Cl)c2)no1 [SI136]

- activity at 3 µM [3]: 99.4%
- activity at 10 µM [4]: 97.2%
SMILES: Cc1onc(-c2ccc(Br)s2)c1C(=O)Nc1ccc(C(C)C)cc1 [SI116]

- activity at 3 µM [11]: 98.8%
- activity at 10 µM [12]: 101%
SMILES: Cc1cc(-c2noc(C)c2C(=O)Nc2ccc(C(F)(F)F)cc2)no1 [SI135]

- activity at 3 µM [5]: 89.2%
- activity at 10 µM [6]: 75.8%
SMILES: CCCCCc1ccc(C(=S)Nc2c(-c3ccccc3)noc2C)cc1 [SI35]

- activity at 3 µM [3]: 109%
- activity at 10 µM [4]: 99.7%
SMILES: Cc1onc(-c2ccccc2)c1NCc1ccc(N(CCO)CCO)cc1 [SI43]

- activity at 3 µM [11]: 96.7%
- activity at 10 µM [12]: 82.9%
SMILES: O=C(Nc1ccc(N2CCCS2(=O)=O)cc1)c1c[nH]cc1-c1ccc(Cl)s1 [SI127]

- activity at 3 µM [9]: 82.9%
- activity at 10 µM [10]: 118%
SMILES: Cc1onc(-c2ccccc2)c1N=Cc1ccc(N(CCO)CCO)cc1 [SI42]

- activity at 3 µM [1]: 100%
- activity at 10 µM [2]: 117%
SMILES: COC(=O)c1ccc(N(C)C(=O)c2c(-c3ccccc3)noc2C)cc1 [SI110]

- activity at 3 µM [9]: 114%
- activity at 10 µM [10]: 87.2%
SMILES: CCN(C(=O)c1c(-c2ccccc2)noc1C)c1ccc(Nc2ccccc2)cc1 [SI6]

- activity at 3 µM [9]: 66.7%
- activity at 10 µM [10]: 78.2%
SMILES: Cc1onc(-c2ccccc2)c1NC(=O)CCCCCBr [SI31]
